pIC50: −log10 of the molar value. Where “and” joins values, the source holds several entries; their conditions need not be identical. Equal entries are not always repeated. Structures can show the parent of a compound that is named as a salt.
Experiments:
[1] = molecular target: T1, Human sputum neutrophil elastase (Homo sapiens, UniProt P08246); test: Inhibitor IC50 against human neutrophil elastase (fluorogenic MeOSuc-AAPV-AMC substrate); format: biochemical; conditions: 20 min preincubation, read-out: HNE IC50
T1 construct: purchased Elastin Products Co; host or cells: human sputum (natural source)
T1 sequence (P08246 30-247 limits assumed): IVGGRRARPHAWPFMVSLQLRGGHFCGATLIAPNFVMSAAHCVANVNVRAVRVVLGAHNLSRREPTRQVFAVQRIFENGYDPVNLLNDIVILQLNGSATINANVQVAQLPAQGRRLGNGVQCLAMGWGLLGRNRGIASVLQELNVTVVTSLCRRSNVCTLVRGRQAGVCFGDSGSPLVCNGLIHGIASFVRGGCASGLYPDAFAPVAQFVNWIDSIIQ
Summary of the method: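 Enzyme from human sputum in 200 mM Tris pH 7.4 with 1 mg/ml BSA; MeOSuc-AAPV-AMC at 1×10^−4 M final. Reaction ran 20 min at room temperature, then quenched with 3% (v/v) acetic acid. IC50 from Hill fit of fluorescence versus inhibitor concentration.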

[2] = test system: LPS-induced increase of lung permeability (Evan's blue dye leakage); test: Acute lung injury model (lung permeability assay); format: in vivo; conditions: male Wistar rats, intratracheal LPS, intravenous infusion 10 mg/kg/hr over 6 hours, Evan's blue dye content of lung
Procedure: Acute Lung Injury Model (Lung Permeability Assay)
Adult male Wistar rats (200-250 g) were anesthetized with an intraperitoneal of pentobarbital (30 mg/kg). Under the anesthesia, lipopolysaccharide (LPS) ([…]) or physiological saline (100 μL/animal) was intratracheally injected. Increase of lung permeability after LPS instillation was measured by Evan's blue dye (EBD) leakage from blood. EBD (40 mg/5 mL/kg) was administered via tail vein 5 hours after the LPS challenge. At 6 hours, animals were exsanguinated by cardiac puncture under deep anesthesia and the pulmonary vessels were perfused with 20 mL saline to ensure the removal of EBD from the vascular spaces. Lungs were removed and EBD was extracted in 6 mL formamide at 65° C. overnight. EBD content was determined by measuring absorbance at 620 nm using a spectrophotometer. The test compound was dissolved in saline with a small amount of 1 N HCl and continuously infused intravenously at a rate of 10 mg/kg/hr over 6 hours starting just after LPS challenge.

SMILES | melting point | pIC50 [1] | % Inhibition in the ALI model [2]
CCc1cc(OC)cc2nc(-c3cccnc3N3CC[C@H](N(C)C)C3)oc(=O)c12 (as salt: tartrate) (hydrate or solvate) [Compound 132, 2-[2-((S)-3-Dimethylamino-pyrrolidin-1-yl)-pyridin-3-yl]-5-ethyl-7-methoxy-4H-benz[d][1,3]oxazin-4-one] | 148 to 155 °C and 144 to 145 °C | – | –
CCc1cc(OC)cc2nc(-c3cccnc3N3CC[C@H](N(C)C)C3)oc(=O)c12 (as salt: trifluoroacetate) [Compound 132, 2-[2-((S)-3-Dimethylamino-pyrrolidin-1-yl)-pyridin-3-yl]-5-ethyl-7-methoxy-4H-benz[d][1,3]oxazin-4-one] | 117 to 119 °C | – | –
CCc1cc(OC)cc2nc(-c3cccnc3N3CC[C@H](N(C)C)C3)oc(=O)c12 [Compound 132, 2-[2-((S)-3-Dimethylamino-pyrrolidin-1-yl)-pyridin-3-yl]-5-ethyl-7-methoxy-4H-benz[d][1,3]oxazin-4-one] | – | > 7.82 | C (C>30)
CCc1cc(OC)cc2nc(-c3cccnc3N3CCN(CCOC)CC3)oc(=O)c12 [Compound 134] | – | – | B (B=11-30)
